According to PubChem BioAssay AID1963836 (Molecular Pharmacology Branch, DTP, NCI, 2024):

Test system: 857933-349-R-J2-PDC complex spheroid viability
Assay: Anticancer human tumor 857933-349-R-J2-PDC patient-derived colon adenocarcinoma cell line growth inhibition [POLQ]
Conditions: for IC50: curve of first compound; for viability, T/C: stronger effect = lower value
Outline: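 Complex spheroid viability model combining PDC tumour cells with endothelial (HUVEC) and MSC stromal cells. Novobiocin, ART-558 or RP6685 were tested singly and in combination with standard and investigational anticancer drugs. Each was titrated in half-log steps from near clinical Cmax, or from 10 microM where Cmax was unknown.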

[1] = second compound 0.0316 µM, first compound 0.0316 µM
[2] = second compound 0.0316 µM, first compound 0.1 µM
[3] = second compound 0.0316 µM, first compound 0.316 µM
[4] = second compound 0.0316 µM, first compound 1 µM
[5] = second compound 0.1 µM, first compound 0.0316 µM
[6] = second compound 0.1 µM, first compound 0.1 µM
[7] = second compound 0.1 µM, first compound 0.316 µM
[8] = second compound 0.1 µM, first compound 1 µM
[9] = second compound 0.316 µM, first compound 0.0316 µM
[10] = second compound 0.316 µM, first compound 0.1 µM
[11] = second compound 0.316 µM, first compound 0.316 µM
[12] = second compound 0.316 µM, first compound 1 µM
[13] = second compound 1 µM, first compound 0.0316 µM
[14] = second compound 1 µM, first compound 0.1 µM
[15] = second compound 1 µM, first compound 0.316 µM
[16] = second compound 1 µM, first compound 1 µM
[17] = second compound 3.16 µM, first compound 0.0316 µM
[18] = second compound 3.16 µM, first compound 0.1 µM
[19] = second compound 3.16 µM, first compound 0.316 µM
[20] = second compound 3.16 µM, first compound 1 µM
[21] = second compound 10 µM, first compound 0.0316 µM
[22] = second compound 10 µM, first compound 0.1 µM
[23] = second compound 10 µM, first compound 0.316 µM
[24] = second compound 10 µM, first compound 1 µM
[25] = second compound 0.0316 µM, first compound 3.16 µM
[26] = second compound 0.0316 µM, first compound 10 µM
[27] = second compound 0.1 µM, first compound 3.16 µM
[28] = second compound 0.1 µM, first compound 10 µM
[29] = second compound 0.316 µM, first compound 3.16 µM
[30] = second compound 0.316 µM, first compound 10 µM
[31] = second compound 1 µM, first compound 3.16 µM
[32] = second compound 1 µM, first compound 10 µM
[33] = second compound 3.16 µM, first compound 3.16 µM
[34] = second compound 3.16 µM, first compound 10 µM
[35] = second compound 10 µM, first compound 3.16 µM
[36] = second compound 10 µM, first compound 10 µM
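Note: spheroids exposed to compounds for seven days before readout.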

## CCc1c2c(nc3ccc(O)cc13)-c1cc3c(c(=O)n1C2)COC(=O)[C@]3(O)CC + Cc1cccc(N(C)C(=O)C2C(O)CCN2c2nc(C)cc(C(F)(F)F)c2C#N)c1
Second compound 0.0316 µM
  IC50: 21.5 nM
Second compound 0.1 µM
  IC50: 16.7 nM
Second compound 0.316 µM
  IC50: 14 nM
Second compound 1 µM
  IC50: 15.6 nM
Second compound 3.16 µM
  IC50: 13.4 nM
Second compound 10 µM
  IC50: 13.6 nM
Second compound 0.0316 µM, first compound 0.00316 µM
  viability, T/C: 75%
Second compound 0.0316 µM, first compound 0.01 µM
  viability, T/C: 78.5%
[1]
  viability, T/C: 36.5%
[2]
  viability, T/C: 20%
[3]
  viability, T/C: 16.1%
[4]
  viability, T/C: 5.22%
Second compound 0.1 µM, first compound 0.00316 µM
  viability, T/C: 70.1%
Second compound 0.1 µM, first compound 0.01 µM
  viability, T/C: 68.6%
[5]
  viability, T/C: 27.4%
[6]
  viability, T/C: 17.7%
[7]
  viability, T/C: 13.2%
[8]
  viability, T/C: 3.51%
Second compound 0.316 µM, first compound 0.00316 µM
  viability, T/C: 67%
Second compound 0.316 µM, first compound 0.01 µM
  viability, T/C: 59.5%
[9]
  viability, T/C: 32%
[10]
  viability, T/C: 20.2%
[11]
  viability, T/C: 15%
[12]
  viability, T/C: 4.16%
Second compound 1 µM, first compound 0.00316 µM
  viability, T/C: 73.9%
Second compound 1 µM, first compound 0.01 µM
  viability, T/C: 62.5%
[13]
  viability, T/C: 30.8%
[14]
  viability, T/C: 19.8%
[15]
  viability, T/C: 14.1%
[16]
  viability, T/C: 5.21%
Second compound 3.16 µM, first compound 0.00316 µM
  viability, T/C: 72.9%
Second compound 3.16 µM, first compound 0.01 µM
  viability, T/C: 59.6%
[17]
  viability, T/C: 23.5%
[18]
  viability, T/C: 19.1%
[19]
  viability, T/C: 12.3%
[20]
  viability, T/C: 4.25%
Second compound 10 µM, first compound 0.00316 µM
  viability, T/C: 65.1%
Second compound 10 µM, first compound 0.01 µM
  viability, T/C: 60.2%
[21]
  viability, T/C: 22.4%
[22]
  viability, T/C: 17.7%
[23]
  viability, T/C: 17.1%
[24]
  viability, T/C: 2.64%

## CNCc1ccc(-c2[nH]c3cc(F)cc4c3c2CCNC4=O)cc1 + Cc1cccc(N(C)C(=O)C2C(O)CCN2c2nc(C)cc(C(F)(F)F)c2C#N)c1
Second compound 0.0316 µM
  IC50: > 10000 nM
Second compound 0.1 µM
  IC50: > 10000 nM
Second compound 0.316 µM
  IC50: > 10000 nM
Second compound 1 µM
  IC50: > 10000 nM
Second compound 3.16 µM
  IC50: > 10000 nM
Second compound 10 µM
  IC50: > 10000 nM
[1]
  viability, T/C: 98.9%
[2]
  viability, T/C: 111%
[3]
  viability, T/C: 96.3%
[4]
  viability, T/C: 99.2%
[25]
  viability, T/C: 78.9%
[26]
  viability, T/C: 99.7%
[5]
  viability, T/C: 103%
[6]
  viability, T/C: 90.7%
[7]
  viability, T/C: 90.7%
[8]
  viability, T/C: 76.4%
[27]
  viability, T/C: 102%
[28]
  viability, T/C: 104%
[9]
  viability, T/C: 97.3%
[10]
  viability, T/C: 104%
[11]
  viability, T/C: 108%
[12]
  viability, T/C: 95.5%
[29]
  viability, T/C: 103%
[30]
  viability, T/C: 89.5%
[13]
  viability, T/C: 120%
[14]
  viability, T/C: 98.5%
[15]
  viability, T/C: 90.7%
[16]
  viability, T/C: 86.5%
[31]
  viability, T/C: 104%
[32]
  viability, T/C: 79.3%
[17]
  viability, T/C: 88.7%
[18]
  viability, T/C: 112%
[19]
  viability, T/C: 95.7%
[20]
  viability, T/C: 105%
[33]
  viability, T/C: 95.4%
[34]
  viability, T/C: 80.5%
[21]
  viability, T/C: 102%
[22]
  viability, T/C: 106%
[23]
  viability, T/C: 117%
[24]
  viability, T/C: 68.4%
[35]
  viability, T/C: 116%
[36]
  viability, T/C: 86.3%

## Nc1ccn(C2OC(CO)C(O)C2(F)F)c(=O)n1 (stereo not drawn) + Cc1cccc(N(C)C(=O)C2C(O)CCN2c2nc(C)cc(C(F)(F)F)c2C#N)c1
Second compound 0.0316 µM
  IC50: 169 nM
Second compound 0.1 µM
  IC50: 175 nM
Second compound 0.316 µM
  IC50: 117 nM
Second compound 1 µM
  IC50: 141 nM
Second compound 3.16 µM
  IC50: 146 nM
Second compound 10 µM
  IC50: 126 nM
[1]
  viability, T/C: 81.5%
[2]
  viability, T/C: 62.4%
[3]
  viability, T/C: 35.5%
[4]
  viability, T/C: 15.5%
[25]
  viability, T/C: 13.2%
[26]
  viability, T/C: 11.9%
[5]
  viability, T/C: 82.9%
[6]
  viability, T/C: 68.2%
[7]
  viability, T/C: 30.5%
[8]
  viability, T/C: 15.2%
[27]
  viability, T/C: 12.4%
[28]
  viability, T/C: 7.96%
[9]
  viability, T/C: 73.8%
[10]
  viability, T/C: 54%
[11]
  viability, T/C: 26.5%
[12]
  viability, T/C: 15.5%
[29]
  viability, T/C: 13.2%
[30]
  viability, T/C: 10.8%
[13]
  viability, T/C: 78.3%
[14]
  viability, T/C: 61.4%
[15]
  viability, T/C: 23.1%
[16]
  viability, T/C: 18.2%
[31]
  viability, T/C: 12.1%
[32]
  viability, T/C: 10%
[17]
  viability, T/C: 65.2%
[18]
  viability, T/C: 60%
[19]
  viability, T/C: 30.7%
[20]
  viability, T/C: 15.7%
[33]
  viability, T/C: 10.1%
[34]
  viability, T/C: 10.3%
[21]
  viability, T/C: 80.6%
[22]
  viability, T/C: 53.7%
[23]
  viability, T/C: 33.6%
[24]
  viability, T/C: 17.4%
[35]
  viability, T/C: 12.2%
[36]
  viability, T/C: 11.4%

## O=C(c1cc(Cc2n[nH]c(=O)c3ccccc23)ccc1F)N1CCN(C(=O)C2CC2)CC1 + Cc1cccc(N(C)C(=O)C2C(O)CCN2c2nc(C)cc(C(F)(F)F)c2C#N)c1
Second compound 0.0316 µM
  IC50: > 10000 nM
Second compound 0.1 µM
  IC50: > 10000 nM
Second compound 0.316 µM
  IC50: > 10000 nM
Second compound 1 µM
  IC50: > 10000 nM
Second compound 3.16 µM
  IC50: > 10000 nM
Second compound 10 µM
  IC50: > 10000 nM
[1]
  viability, T/C: 109%
[2]
  viability, T/C: 99.4%
[3]
  viability, T/C: 85.3%
[4]
  viability, T/C: 72.5%
[25]
  viability, T/C: 93.4%
[26]
  viability, T/C: 84.7%
[5]
  viability, T/C: 109%
[6]
  viability, T/C: 101%
[7]
  viability, T/C: 93.8%
[8]
  viability, T/C: 83.8%
[27]
  viability, T/C: 69.7%
[28]
  viability, T/C: 72.9%
[9]
  viability, T/C: 107%
[10]
  viability, T/C: 98.1%
[11]
  viability, T/C: 70.5%
[12]
  viability, T/C: 96.2%
[29]
  viability, T/C: 89.8%
[30]
  viability, T/C: 80.3%
[13]
  viability, T/C: 84.7%
[14]
  viability, T/C: 80.9%
[15]
  viability, T/C: 86.2%
[16]
  viability, T/C: 79%
[31]
  viability, T/C: 73.7%
[32]
  viability, T/C: 82.6%
[17]
  viability, T/C: 67%
[18]
  viability, T/C: 79.2%
[19]
  viability, T/C: 81.6%
[20]
  viability, T/C: 87.2%
[33]
  viability, T/C: 72.8%
[34]
  viability, T/C: 92.2%
[21]
  viability, T/C: 86.5%
[22]
  viability, T/C: 110%
[23]
  viability, T/C: 82.6%
[24]
  viability, T/C: 84%
[35]
  viability, T/C: 71.3%
[36]
  viability, T/C: 79.9%
